PMC6161288, “Bioavailability of Eurycomanone in Its Pure Form and in a Standardised Eurycoma longifolia Water Extract” (Pharmaceutics, 2018)
Where a name gives a salt, the structure may show the parent alone.

Columns and labels:
[1] = Lipophilicity, shake flask method with octanol and buffer (pH 7.4); format: physicochemical; settings: pH 7.4
Method: The lipophilicity of eurycomanone was estimated using the shake flask method with octanol and buffer (pH 7.4). Eurycomanone (5 µL) at 5 mM concentration is added to octanol (495 µL) and DMSO (495 µL) and also into the aqueous and octanol phase in a 1:1 ratio ([…] of octanol phase and 247.5 µL of aqueous phase). The octanol and aqueous phases were prepared using a saturation process, where equal amounts of D-PBS (pH 7.4) and octanol were saturated (300 rpm, room temperature) for 24 h before being separated and kept at room temperature. The prepared mixtures were vortexed and kept on the shaker (300 rpm) at room temperature for 16 h. The mixtures were allowed to stand for 30 min, and 200 µL of solution was transferred and sent for HPLC analysis.

[2] = Aqueous solubility; format: physicochemical
Method: The aqueous […] was estimated by adding 10 µL of eurycomanone stock solution (10 mM) to 490 µL of aqueous buffer at pH 5.4, pH 7.4 and DMSO in triplicates in deep-well plates. […] The plate was kept on a shaker (300 rpm) at room temperature for 16 h. The plate was then centrifuged at 25 °C, 4000 rpm for 25 min. The supernatant was transferred and analysed using LC-MS/MS.
Peak area 1 = peak area of the compound in 2% DMSO at the different pH levels.
Peak area 2 = peak area of the compound in 100% DMSO.

[3] = Caco-2 cell permeability assay; format: in vitro ADME; settings: human, Caco-2, Efflux Ratio
Method: The Caco-2 assay was carried out after seeding the cells onto the membrane to form a confluent monolayer in 21 days. The media is removed from apical (A) and basolateral (B) chambers and the membrane is washed with HBSS buffer. Eurycomanone (10 µM, 200 µL) was added to the A compartment (which represents the intestinal lumen), and buffer (300 µL) was added to the B compartment (representing the blood), and vice versa. The plate was kept in a shaking incubator (37 °C) for 1 h. The amount of eurycomanone that had permeated across the cells was measured by LC-MS/MS, and the apparent permeability (Papp) values and efflux ratio were calculated. The expression of P-glycoprotein (P-gp) by differentiated Caco-2 cells was confirmed by measuring the Papp value and efflux ratio of vinblastine with and without the presence of a competing P-gp substrate, cyclosporine A. Eurycomanone was also measured with the presence of cyclosporine A to investigate whether eurycomanone may be transported via P-gp transporters.

Row | logD at 16 h [1] | Aqueous solubility ([2]; pH 5.4) | Aqueous solubility ([2]; pH 7.4) | efflux ratio at 1 h, 10 µM [3] | Structure (SMILES)
1 | 3.18 |  |  |  | CC/C(=C(/CC)c1ccc(O)cc1)c1ccc(O)cc1 [diethylstilbestrol]
2 | 2.82 | moderate solubility | moderate solubility |  | C[C@]12CC[C@@H]3c4ccc(O)cc4CC[C@H]3[C@@H]1C[C@@H](O)[C@@H]2O [Estriol, estriol, reference compound]
3 |  |  |  | 14.7 | CC[C@]1(O)C[C@@H]2CN(CCc3c([nH]c4ccccc34)[C@@](C(=O)OC)(c3cc4c(cc3OC)N(C)[C@H]3[C@@](O)(C(=O)OC)[C@H](OC(C)=O)[C@]5(CC)C=CCN6CC[C@]43[C@@H]65)C2)C1 [Vinblastine, vinblastine, reference compound]
4 | -0.29 |  |  |  | COCCc1ccc(OCC(O)CNC(C)C)cc1 (stereo not drawn) [metoprolol, metoprolol tartrate]
